From ChEMBL document CHEMBL1133065, “Lipopolyamines incorporating the tetraamine spermine, bound to an alkyl chain, sequester bacterial lipopolysaccharide” (Bioorg Med Chem Lett, 2000)

Experiments:
Nucleic Acid = experiment: The compound was evaluated for binding affinity towards calf thymus DNA.; type: nucleic-acid assay; details: Bos taurus
J774.A1 [1] = experiment: Inhibition of NO production by J774.A1 cells stimulated for 18 hr with Escherichia coli at 0.5 uM, measured as nitrite using the Griess assay; effectively inhibited; type: functional, cell-based; details: Mus musculus
J774.A1 [2] = experiment: Inhibition of TNF-alpha production by J774.A1 cells stimulated for 18 hr with Escherichia coli at 0.9 uM, by ELISA assay; effectively inhibited; type: functional, cell-based; details: Mus musculus

Row | Structure (SMILES) | C50 (Nucleic Acid) | inhibition (J774.A1 [1]) | inhibition (J774.A1 [2])
1 | CCCCCCCCCCCCCCCC(=O)NCCCNCCCCNCCCN | 1.35 µM |  | 
2 | CCCCCCCCCCCCCCCCCC(=O)NCCCNCCCCNCCCN | 1.27 µM |  | 
3 | CCCCCCCCCCCCCCCC(=O)NCCCNCCCNCCCCNCCCN | 0.9 µM | effectively inhibited | effectively inhibited
4 | CCCCCCCC/C=C/CCCCCCCC(=O)NCCCNCCCCNCCCN | 1.29 µM |  | 
